This is an account of results in article PMC10138721, “Investigation of the Compatibility between Warheads and Peptidomimetic Sequences of Protease Inhibitors—A Comprehensive Reactivity and Selectivity Study” (International Journal of Molecular Sciences, 2023).

SMILES strings stand for the structures. Like-named read-outs stand apart in the source and are kept apart here.

Common to all, as to format: biochemical
The target in one assay is rhodesain (Trypanosoma brucei rhodesiense, UniProt Q95PM0). Kind of assay: Fluorometric inhibition assay, rhodesain. The settings on record: for kinact: read-out: kinact, Rhodesain.
Chain of rhodesain (Q95PM0 entry or part of it): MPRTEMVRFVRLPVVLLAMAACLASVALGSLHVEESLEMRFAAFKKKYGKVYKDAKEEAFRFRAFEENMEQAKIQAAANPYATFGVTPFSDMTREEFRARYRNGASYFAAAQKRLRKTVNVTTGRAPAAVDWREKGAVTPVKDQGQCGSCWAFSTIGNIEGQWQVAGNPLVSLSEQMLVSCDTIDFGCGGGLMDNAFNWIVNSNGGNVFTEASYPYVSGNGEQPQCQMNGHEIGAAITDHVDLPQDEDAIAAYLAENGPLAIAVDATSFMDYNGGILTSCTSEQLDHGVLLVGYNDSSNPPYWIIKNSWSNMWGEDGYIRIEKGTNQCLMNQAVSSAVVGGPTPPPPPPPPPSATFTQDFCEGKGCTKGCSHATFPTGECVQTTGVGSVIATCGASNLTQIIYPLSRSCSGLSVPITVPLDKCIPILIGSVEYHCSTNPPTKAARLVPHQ
For a further assay, the target named is T1, human cathepsin S (CatS) (Homo sapiens, UniProt P25774).
T1 construct: purchased Sigma Aldrich
T1 sequence (P25774 115-331): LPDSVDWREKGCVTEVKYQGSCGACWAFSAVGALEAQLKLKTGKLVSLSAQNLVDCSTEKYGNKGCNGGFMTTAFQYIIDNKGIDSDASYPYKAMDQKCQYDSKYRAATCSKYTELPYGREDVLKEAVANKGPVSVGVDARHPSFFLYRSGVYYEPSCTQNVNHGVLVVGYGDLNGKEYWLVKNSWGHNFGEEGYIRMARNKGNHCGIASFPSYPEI
Kind of assay: Fluorometric inhibition assay, cathepsin S. The settings on record: for kinact: read-out: kinact, CatS.

Assay [1] has as its target SARS-CoV-2 main protease (M^pro) (Severe acute respiratory syndrome coronavirus 2, UniProt P0DTD1). Kind of assay: Fluorometric (FRET) inhibition assay, SARS-CoV-2 M^pro. The settings on record: for activity against M^pro, in words: initial screen at 20 µM, cut-off 80% inhibition.
[2] abbreviates: Table S1; a) calculated from IC50 with Cheng–Prusoff, irreversible inhibitors from kobs fits, n.a. = not active at 20 µM, read-out: Ki, Rhodesain.
[3] abbreviates: Table S1, irreversible inhibitors.
[4] abbreviates: Table S1; a) calculated from IC50 with Cheng–Prusoff, irreversible inhibitors from kobs fits, n.a. = not active at 20 µM, * unstable towards DTT, read-out: Ki, CatS.

In the case of `O=C(N[C@@H](Cc1ccccc1)C(=O)N[C@H](/C=C/[N+](=O)[O-])CCc1ccccc1)OCc1ccccc1` [compound 13], the Ki on rhodesain (Ki, Rhodesain) is 0.06 ± 0.006 nM; on human cathepsin S (CatS) (Ki, CatS), 201 ± 93 nM.

For the compound `O=C(N[C@@H](Cc1ccccc1)C(=O)N[C@H](/C=C/S(=O)(=O)c1ccccc1)CCc1ccccc1)OCc1ccccc1` [compound 16], the Ki was 20 ± 2 nM on rhodesain (Ki, Rhodesain); 20 nM on rhodesain (pKi, Rhodesain inhibition); 1 nM on human cathepsin S (CatS) (pKi, Cathepsin S inhibition). Moreover, the kinact at rhodesain was 0.005 ± 0.0001 s⁻¹; on human cathepsin S (CatS), 0.0037 ± 0.0006 s⁻¹.

Regarding `O=C(N[C@@H](Cc1ccccc1)C(=O)N[C@H](/C=C(\F)S(=O)(=O)c1ccccc1)CCc1ccccc1)OCc1ccccc1` [compound 17], the Ki at rhodesain (Ki, Rhodesain) is 3570 ± 437 nM; at human cathepsin S (CatS) (Ki, CatS), 966 ± 104 nM; at human cathepsin S (CatS) (pKi, Cathepsin S inhibition), 1000 nM.

As to `O=C(N[C@@H](Cc1ccccc1)C(=O)N[C@@H](CCc1ccccc1)C(=O)c1nc2ccccc2s1)OCc1ccccc1` [compound 18], on rhodesain, the “activity against rhodesain, in words” value is “inactive at 20 µM”.

Regarding `CCOC(=O)/C=C/C(=O)[C@H](CCc1ccccc1)NC(=O)[C@H](Cc1ccccc1)NC(=O)OCc1ccccc1` [compound 22], the Ki on rhodesain (Ki, Rhodesain) worked out at 79 ± 7 nM; on human cathepsin S (CatS) (Ki, CatS), 18 ± 3 nM. For the same compound, the kinact on rhodesain came to 0.008 ± 0.001 s⁻¹; on human cathepsin S (CatS), 0.0022 ± 0.0001 s⁻¹.

Take `O=C(N[C@@H](Cc1ccccc1)C(=O)N[C@@H](CCc1ccccc1)C(=O)N[C@H]1CN(c2ccccc2)C1=O)OCc1ccccc1` [compound 24]: at rhodesain, the “activity against rhodesain, in words” value is “inactive at 20 µM”.

As to `N#C[C@H](CCc1ccccc1)NC(=O)[C@H](Cc1ccccc1)NC(=O)OCc1ccccc1` [compound 25], the Ki on rhodesain (Ki, Rhodesain) is 88 ± 17.4 nM; on human cathepsin S (CatS) (Ki, CatS) it was 136 ± 12 nM.

The compound `N#CC(COCc1ccccc1)NC(=O)C(CC1CCCCC1)NC(=O)N1CCOCC1` (centres unmarked) [compound 30] gave a Ki at rhodesain (Ki, Rhodesain) of 21 ± 2 nM.

`O=C(NC(C=CS(=O)(=O)c1ccccc1)COCc1ccccc1)C(CC1CCCCC1)NC(=O)N1CCOCC1` (centres unmarked) [compound 35]: the Ki is 22 ± 2 nM on rhodesain (Ki, Rhodesain) and 3.16 nM on human cathepsin S (CatS) (pKi, Cathepsin S inhibition). Moreover, the kinact came to 0.006 ± 0.0004 s⁻¹ at rhodesain and 0.0202 ± 0.0006 s⁻¹ on human cathepsin S (CatS).

As for `O=C(NC(C=C(F)S(=O)(=O)c1ccccc1)COCc1ccccc1)C(CC1CCCCC1)NC(=O)N1CCOCC1` (centres unmarked) [compound 36], on human cathepsin S (CatS) (Ki, CatS), the Ki stood at 3210 ± 612 nM.

Take `CCOC(=O)C=CC(=O)C(COCc1ccccc1)NC(=O)C(CC1CCCCC1)NC(=O)N1CCOCC1` (centres unmarked) [compound 40]: the Ki on rhodesain (Ki, Rhodesain) is 35 ± 9 nM; at human cathepsin S (CatS) (Ki, CatS), 22 ± 4 nM. The kinact worked out at 0.003 ± 0.0001 s⁻¹ at rhodesain and 0.0023 ± 7e-05 s⁻¹ at human cathepsin S (CatS).

In the case of `O=C(NC(COCc1ccccc1)C(=O)c1nc2ccccc2s1)C(CC1CCCCC1)NC(=O)N1CCOCC1` (centres unmarked) [compound 42], at rhodesain, the “activity against rhodesain, in words” value is on record as “submicromolar affinity”. In addition, the Ki on rhodesain (Ki, Rhodesain) was 324 ± 89 nM; on human cathepsin S (CatS) (Ki, CatS), 233 ± 24 nM; at human cathepsin S (CatS) (pKi, Cathepsin S inhibition) it was 316 nM.

In turn, `O=C(NC1CN(c2ccccc2)C1=O)C(COCc1ccccc1)NC(=O)C(CC1CCCCC1)NC(=O)N1CCOCC1` (centres unmarked) [compound 45] displayed a Ki at human cathepsin S (CatS) (Ki, CatS) of 860 ± 130 nM. For the same compound, the kinact on human cathepsin S (CatS) amounted to 0.00046 ± 2e-05 s⁻¹.

Consider `O=C(NC(C=C[N+](=O)[O-])COCc1ccccc1)C(CC1CCCCC1)NC(=O)N1CCOCC1` (centres unmarked) [compound 49], for which the Ki at rhodesain (pKi, Rhodesain inhibition) is 2 nM; on human cathepsin S (CatS) (Ki, CatS), 12 ± 1 nM.

As for `CC(C)C[C@@H](/C=C/S(=O)(=O)c1ccccc1)NC(=O)[C@H](Cc1ccccc1)NC(=O)c1cnccn1` [compound 58], the Ki on rhodesain (Ki, Rhodesain) amounted to 331 ± 41 nM; on human cathepsin S (CatS) (Ki, CatS), 126 ± 71 nM. Also, the kinact is 0.019 ± 0.001 s⁻¹ on rhodesain and 0.013 ± 0.002 s⁻¹ at human cathepsin S (CatS).

On to `CCOC(=O)/C=C/C(=O)[C@H](C[C@@H]1CCNC1=O)NC(=O)[C@H](CC(C)C)NC(=O)c1cc2c(OC)cccc2[nH]1` [compound 81], for which the Ki on rhodesain (setting [2]) is 99 ± 24 nM. The kinact on rhodesain (setting [3]) is 0.006 ± 0.0009 s⁻¹. For the same compound, the “activity against CatS, in words” value at human cathepsin S (CatS) (initial screen at 20 µM, cut-off 80% inhibition) is “essentially inactive”.

`COc1cccc2[nH]c(C(=O)N[C@@H](CC(C)C)C(=O)N[C@H](C#N)C[C@@H]3CCNC3=O)cc12` [compound 84]: the results for the Ki on rhodesain (setting [2]) and at human cathepsin S (CatS) (setting [4]) were 42 ± 5 nM and 104 ± 9 nM, respectively. The “activity against M^pro, in words” value in assay [1] is listed as “displayed inhibitory activity”.

Regarding `COc1cccc2[nH]c(C(=O)N[C@@H](CC(C)C)C(=O)N[C@H](/C=C/[N+](=O)[O-])C[C@@H]3CCNC3=O)cc12` [compound 88], the Ki at rhodesain (calculated from Ki, –log10(Ki/M), read-out: pKi, Rhodesain inhibition (converted)) was 2 nM; at human cathepsin S (CatS) (setting [4]), 388 ± 277 nM; in assay [1], 2200 ± 184 nM. The “activity against M^pro, in words” value in assay [1] is “displayed inhibitory activity”.

On to `COc1cccc2[nH]c(C(=O)N[C@@H](CC(C)C)C(=O)N[C@@H](C[C@@H]3CCNC3=O)C(=O)c3nc4ccccc4s3)cc12` [compound 90], for which, in assay [1], the “activity against M^pro, in words” value is listed as “displayed inhibitory activity”.

With `COc1cccc2[nH]c(C(=O)N[C@@H](CC(C)C)C(=O)N[C@H](/C=C/S(=O)(=O)c3ccccc3)C[C@@H]3CCNC3=O)cc12` [compound 93], the Ki is 2000 ± 604 nM at rhodesain (setting [2]); 330 ± 65 nM at human cathepsin S (CatS) (setting [4]); 398 nM at human cathepsin S (CatS) (calculated from Ki, –log10(Ki/M), read-out: pKi, Cathepsin S inhibition (converted)); 3530 ± 1110 nM in assay [1]. Moreover, the kinact on rhodesain (setting [3]) worked out at 0.029 ± 0.008 s⁻¹; on human cathepsin S (CatS) (setting [3]) it was 0.0087 ± 0.0001 s⁻¹; in assay [1] (read-out: kinact, MPro), 0.0137 ± 0.0061 s⁻¹. In addition, the “activity against M^pro, in words” value in assay [1] is given as “displayed inhibitory activity”.

`COc1cccc2[nH]c(C(=O)N[C@@H](CC(C)C)C(=O)N[C@H](/C=C(\F)S(=O)(=O)c3ccccc3)C[C@@H]3CCNC3=O)cc12` [compound 94]: the Ki is 217 ± 31 nM at rhodesain (setting [2]), 1350 ± 90 nM at human cathepsin S (CatS) (setting [4]) and 517 ± 33 nM in assay [1]. Also, the “activity against M^pro, in words” value in assay [1] was “displayed inhibitory activity”.

On to `COc1cccc2[nH]c(C(=O)N[C@@H](CC(C)C)C(=O)N[C@@H](C[C@@H]3CCNC3=O)C(=O)NC3CN(c4ccccc4)C3=O)cc12` (some centres unmarked) [compound 96], for which, in assay [1], the “activity against M^pro, in words” value is “inactive at 20 µM”.

With `CC(=O)NCC(=O)NC(C(=O)N[C@@H](C)C(=O)N[C@H](/C=C/S(=O)(=O)c1ccccc1)CCCNC(=N)N)[C@H](C)O` (some centres unmarked) [compound 106], on rhodesain, the “activity against rhodesain, in words” value was “inactive”. Besides, the “activity against CatS, in words” value at human cathepsin S (CatS) is listed as “not active at 20 µM”.

As to `CC(=O)NCC(=O)NC(C(=O)N[C@@H](C)C(=O)N[C@H](/C=C(\F)S(=O)(=O)c1ccccc1)CCCNC(=N)N)[C@H](C)O` (some centres unmarked) [compound 107], on rhodesain, the “activity against rhodesain, in words” value is “inactive”. The “activity against CatS, in words” value on human cathepsin S (CatS) is given as “not active at 20 µM”.
